Here are results for eleven molecules from patent US20260199367A1, “PLK1 DEGRADATION INDUCING COMPOUNDS WITH INCREASED RIGIDITY” (UPPTHERA, INC., priority 2022, published 2026).

Common to all, as to assay type: cell-based
One experiment addresses T1, PLK1 (Homo sapiens, UniProt P53350).
T1 construct: endogenous in cells; host or cells: HeLa LgBit (PLK1-HiBit KI): HeLa cells stably expressing LgBit, with CRISPR/Cas9 knock-in of HiBit at the endogenous PLK1 locus
The experiment is described as follows: Luciferase assay for PLK1 in HeLa LgBit (PLK1-HiBit KI) cell line. The conditions noted are these: released after thymidine block, compound 300 nM, luminescence after 9 hours. Here is the method: A HeLa cell line in which the LgBit vector was transfected and expressed stably was prepared. Then, after constructing gRNA and donor to express the HiBit amino acid sequence behind the C-terminal of the PLK1 gene, which was inherent in the cell, it was inserted into the cell together with a vector capable of expressing CRISPR/Cas9. Only the cells in which the insertion was completed and knock-in had progressed were selected, sub-cultured and used.
The compounds of Examples were completely dissolved in DMSO (Sigma-Aldrich Cat. No. D2438, Lot. No. RNBL5438) and used in the experiment.
In the case of HeLa LgBit (Plk1-HiBit KI), the compounds were treated after being released after thymidine block, and the process was as follows. Thymidine (Sigma-Aldrich Cat. No. T9250-5G) was completely dissolved in ddH2O and used in the experiment. For thymidine block, the products were treated with 2 mM of thymidine and then incubated for 24 hours. For release and chemical treatment, the medium was suctioned and washed with 1×PBS. TrypLE™ was added and incubated in 37° C. CO2 incubator (Thermo Fisher Science, Cat. No. 4111) for 5 mins. Cells neutralized by adding complete media were counted through a counter. For each well of a 96-well culture plate (SPL), 3.3×10^4 cells and a total medium volume of 150 μl were seeded and incubated in a CO2 incubator.
Each cell line was incubated in a CO2 incubator for 18 hours, and Endurazine (Promega, Cat. No. N257B) was added to each well to make up 4% of the total volume. After adding compounds of Examples in a 96-well white plate (SPL) to a concentration of 300 nM, the wavelength of the plate reader (BMG Labtech, CLARIOstar Plus) was set to 470-480 nM, and then the luminescence was tracked in real time.
Background: HiBiT is a short tag that completes a luciferase, so light tracks the accessible tagged protein.

The test system of a further experiment is NCI-H69 (H69) cell line. Description: Cell viability assay for NCI-H69 cell line. Particulars: Homo sapiens, NCI-H69, 120 h, 5 days, EZ-Cytox, 0.46-3000 nM. The text has this: (§1) The NCI-H69 (hereafter H69) and NCI-H526 (hereafter H526) cell lines were purchased from Korea Cell Line Bank (KCLB, Seoul, Korea). For cell culture, RPMI 1640 (Gibco, Cat. No. 22400-089; Lot. No. 2537146), FBS (Gibco, Cat. No. 16000-044; Lot. No. 2511328P), Penicillin/Streptomycin (PS) (Gibco, Cat. No. 15140-122; Lot. No. 2441887), 75T cell culture flask (SPL, Cat. No. 71075), 175T cell culture flask (SPL, Cat. No. 71175), 96-well cell culture plate (SPL, Cat. No. 30096), PBS pH 7.4 (Gibco, Cat. No. 10010-023; Lot. No. 2509235), TrypLE™ Express (Gibco, Cat. No. 12605-010; Lot. No. 2323417), Cell Counter (Hematocytometer)(As one, Cat. No. 4-458-01), and 0.4% Trypan Blue Solution (DYNEBIO, Cat. No. CBT3710; Lot. No. 20221111) were used.
(§2) The compounds of Examples were completely dissolved in DMSO (Sigma-Aldrich Cat. No. D2438, Lot. No. RNBL7287) and used in the experiment. 3×10^4 cells were seeded for each well of a 96-well plate (SPL), and the cells were cultured in total volume of 150 μl. Each compound was diluted 3-folds from the highest concentration of 3000 nM to the lowest concentration of 0.46 nM. After treating the compound to each well to make the total volume of 200 μl, it was cultured in a CO2 incubator (Thermo Fisher Science, Cat. No. 4111) for 5 days. Then, after treating EZ-Cytox (DOGEN, Cat.NO. EZ-3000, Lot. No. DLS2308) 20 μl in each well, it was cultured in CO2 incubator for 4 hours. The absorbance of the completely cultured sample was measured by setting the wavelength of a plate reader (BMG Labtech, CLARIOstar Plus) to […], and was measured after shaking for 3 minutes in a plate reader before measurement.
(§3) (A: IC50 is less than 20 nM, B: IC50 is 50 nM or less, C: IC50 is 100 nM or less)

Experiment [1] deals with NCI-H526 (H526) cell line. Description: Cell viability assay for NCI-H526 cell line. The conditions noted are these: Homo sapiens, NCI-H526, 120 h, 5 days, EZ-Cytox, 0.46-3000 nM.
Source text: as §1, §2, §3

T1 sequence (P53350 whole entry): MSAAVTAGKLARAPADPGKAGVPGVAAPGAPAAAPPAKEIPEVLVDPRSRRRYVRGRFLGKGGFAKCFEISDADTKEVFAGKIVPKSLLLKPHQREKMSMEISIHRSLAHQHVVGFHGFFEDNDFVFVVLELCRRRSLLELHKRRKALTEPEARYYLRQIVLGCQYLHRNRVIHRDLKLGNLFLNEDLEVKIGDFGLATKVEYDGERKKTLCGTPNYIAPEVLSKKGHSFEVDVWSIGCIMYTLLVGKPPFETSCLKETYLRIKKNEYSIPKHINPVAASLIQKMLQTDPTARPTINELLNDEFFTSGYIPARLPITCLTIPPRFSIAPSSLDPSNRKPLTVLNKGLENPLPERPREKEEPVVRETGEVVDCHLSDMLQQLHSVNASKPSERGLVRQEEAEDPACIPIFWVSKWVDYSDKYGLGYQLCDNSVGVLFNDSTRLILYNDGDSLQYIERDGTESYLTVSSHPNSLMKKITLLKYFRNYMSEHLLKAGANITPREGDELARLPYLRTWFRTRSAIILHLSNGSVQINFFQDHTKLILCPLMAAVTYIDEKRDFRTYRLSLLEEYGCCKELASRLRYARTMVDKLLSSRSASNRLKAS

The term IC50 denotes the concentration that gives 50% inhibition. In the case of `CC[C@@H]1C(=O)N(C)c2cnc(Nc3ccc(C(=O)NC4CCC(N5CCN(CCNc6ccc(C7CCC(=O)NC7=O)cc6)CC5)CC4)cc3OC)nc2N1C1CCCC1` (stereo partly drawn) [Compound 1, 4-(((R)-8-cyclopentyl-7-ethyl-5-methyl-6-oxo-5,6,7,8-tetrahydropteridin-2-yl)amino)-N-((1r,4R)-4-(4-(2-((4-(2,6-dioxopiperidin-3-yl)phenyl)amino)ethyl)piperazin-1-yl)cyclohexyl)-3-methoxybenzamide], the “Value (luminescence value, PLK1-HiBit)” value at PLK1 was 0.139. In addition, the IC50 (in the experiment with NCI-H69 (H69) cell line; in experiment [1]) was < 20 nM each time.
`CC[C@@H]1C(=O)N(C)c2cnc(Nc3ccc(C(=O)NC4CCC(N5CCC(CNc6ccc(C7CCC(=O)NC7=O)cc6)CC5)CC4)cc3OC)nc2N1C1CCCC1` (stereo partly drawn) [Compound 2, 4-(((R)-8-cyclopentyl-7-ethyl-5-methyl-6-oxo-5,6,7,8-tetrahydropteridin-2-yl)amino)-N-((1r,4R)-4-(4-(((4-(2,6-dioxopiperidin-3-yl)phenyl)amino)methyl)piperidin-1-yl)cyclohexyl)-3-methoxybenzamide]: the “Value (luminescence value, PLK1-HiBit)” value at PLK1 is on record as 0.129. Moreover, the IC50 (in the experiment on NCI-H69 (H69) cell line; in experiment [1]) was < 20 nM each time.
Take `CC[C@@H]1C(=O)N(C)c2cnc(Nc3ccc(C(=O)NC4CCC(N5CCN(CCCc6ccc(NC7CCC(=O)NC7=O)cc6)CC5)CC4)cc3OC)nc2N1C1CCCC1` (stereo partly drawn) [Compound 3, 4-(((R)-8-cyclopentyl-7-ethyl-5-methyl-6-oxo-5,6,7,8-tetrahydropteridin-2-yl)amino)-N-((1r,4R)-4-(4-(3-(4-((2,6-dioxopiperidin-3-yl)amino)phenyl)propyl)piperazin-1-yl)cyclohexyl)-3-methoxybenzamide]: the “Value (luminescence value, PLK1-HiBit)” value on PLK1 is listed as 0.253. Further, the IC50 (with NCI-H69 (H69) cell line; in experiment [1]) was < 20 nM throughout.
Turning to `CC[C@@H]1C(=O)N(C)c2cnc(Nc3ccc(C(=O)NC4CCC(N5CCN(CCc6ccc(NC7CCC(=O)NC7=O)cc6)CC5)CC4)cc3OC)nc2N1C1CCCC1` (stereo partly drawn) [Compound 4, 4-(((R)-8-cyclopentyl-7-ethyl-5-methyl-6-oxo-5,6,7,8-tetrahydropteridin-2-yl)amino)-N-((1r,4R)-4-(4-(4-((2,6-dioxopiperidin-3-yl)amino)phenethyl)piperazin-1-yl)cyclohexyl)-3-methoxybenzamide], the “Value (luminescence value, PLK1-HiBit)” value at PLK1 was 0.157. For the same molecule, the IC50 (in the experiment on NCI-H69 (H69) cell line; in experiment [1]) was < 20 nM throughout.
As for `CC[C@@H]1C(=O)N(C)c2cnc(Nc3ccc(C(=O)NC4CCC(N5CCN(CCNc6cccc7c6CN(C6CCC(=O)NC6=O)C7=O)CC5)CC4)cc3OC)nc2N1C1CCCC1` (stereo partly drawn) [Compound 5, 4-(((R)-8-cyclopentyl-7-ethyl-5-methyl-6-oxo-5,6,7,8-tetrahydropteridin-2-yl)amino)-N-((1r,4R)-4-(4-(2-((2-(2,6-dioxopiperidin-3-yl)-1-oxoisoindolin-4-yl)amino)ethyl)piperazin-1-yl)cyclohexyl)-3-methoxybenzamide], the “Value (luminescence value, PLK1-HiBit)” value at PLK1 is 0.376. Also, the IC50 (in the experiment with NCI-H69 (H69) cell line; in experiment [1]) was < 20 nM throughout.
Consider `CC[C@@H]1C(=O)N(C)c2cnc(Nc3ccc(C(=O)NC4CCC(N5CCC(CNc6cccc7c6CN(C6CCC(=O)NC6=O)C7=O)CC5)CC4)cc3OC)nc2N1C1CCCC1` (stereo partly drawn) [Compound 6, 4-(((R)-8-cyclopentyl-7-ethyl-5-methyl-6-oxo-5,6,7,8-tetrahydropteridin-2-yl)amino)-N-((1r,4R)-4-(4-(((2-(2,6-dioxopiperidin-3-yl)-1-oxoisoindolin-4-yl)amino)methyl)piperidin-1-yl)cyclohexyl)-3-methoxybenzamide], for which the “Value (luminescence value, PLK1-HiBit)” value at PLK1 is reported as 0.286. Moreover, the IC50 with NCI-H69 (H69) cell line is ≤ 50 nM; in experiment [1], < 20 nM.
With `CC[C@@H]1C(=O)N(C)c2cnc(Nc3ccc(C(=O)NC4CCC(N5CCC(CNCc6ccc(C7CCC(=O)NC7=O)cc6)CC5)CC4)cc3OC)nc2N1C1CCCC1` (stereo partly drawn) [Compound 7, 4-(((R)-8-cyclopentyl-7-ethyl-5-methyl-6-oxo-5,6,7,8-tetrahydropteridin-2-yl)amino)-N-((1r,4R)-4-(4-(((4-(2,6-dioxopiperidin-3-yl)benzyl)amino)methyl)piperidin-1-yl)cyclohexyl)-3-methoxybenzamide], the “Value (luminescence value, PLK1-HiBit)” value at PLK1 was found to be 0.214. In addition, the IC50 with NCI-H69 (H69) cell line was ≤ 50 nM; in experiment [1] it was < 20 nM.
The corresponding values for `CC[C@@H]1C(=O)N(C)c2cnc(Nc3ccc(C(=O)NC4CCC(N5CCC(NCc6ccc(C7CCC(=O)NC7=O)cc6)CC5)CC4)cc3OC)nc2N1C1CCCC1` (stereo partly drawn) [Compound 8, 4-(((R)-8-cyclopentyl-7-ethyl-5-methyl-6-oxo-5,6,7,8-tetrahydropteridin-2-yl)amino)-N-((1r,4R)-4-(4-((4-(2,6-dioxopiperidin-3-yl)benzyl)amino)piperidin-1-yl)cyclohexyl)-3-methoxybenzamide] are 0.279, < 20 nM and < 20 nM.
Consider `CC[C@@H]1C(=O)N(C)c2cnc(Nc3ccc(C(=O)NC4CCN(C(=O)C(N)CN5CCN(c6cccc7c6C(=O)N(C6CCC(=O)NC6=O)C7=O)CC5)CC4)cc3OC)nc2N1C1CCCC1` (stereo partly drawn) [Compound 9, N-(1-(2-amino-3-(4-(2-(2,6-dioxopiperidin-3-yl)-1,3-dioxoisoindolin-4-yl)piperazin-1-yl)propanoyl)piperidin-4-yl)-4-(((R)-8-cyclopentyl-7-ethyl-5-methyl-6-oxo-5,6,7,8-tetrahydropteridin-2-yl)amino)-3-methoxybenzamide], for which, at PLK1, the “Value (luminescence value, PLK1-HiBit)” value came to 0.377. Also, the figures for the IC50 (in the experiment with NCI-H69 (H69) cell line; in experiment [1]) were ≤ 100 nM and < 20 nM, respectively.
The corresponding values for `CC[C@@H]1C(=O)N(C)c2cnc(Nc3ccc(C(=O)NC4CCN(C(=O)C(N)CN5CCN(c6ccc(C7CCC(=O)NC7=O)cc6)CC5)CC4)cc3OC(F)(F)F)nc2N1C1CCCC1` (stereo partly drawn) [Compound 10, N-(1-(2-amino-3-(4-(4-(2,6-dioxopiperidin-3-yl)phenyl)piperazin-1-yl)propanoyl)piperidin-4-yl)-4-(((R)-8-cyclopentyl-7-ethyl-5-methyl-6-oxo-5,6,7,8-tetrahydropteridin-2-yl)amino)-3-(trifluoromethoxy)benzamide] are 0.282, ≤ 100 nM and ≤ 50 nM.
For `CC[C@@H]1C(=O)N(C)c2cnc(Nc3ccc(C(=O)NC4CCN(C(=O)C(N)CN5CCN(c6ccc(C7CCC(=O)NC7=O)cc6)CC5)CC4)cc3OC)nc2N1C1CCCC1` (stereo partly drawn) [Compound 11, N-(1-(2-amino-3-(4-(4-(2,6-dioxopiperidin-3-yl)phenyl)piperazin-1-yl)propanoyl)piperidin-4-yl)-4-(((R)-8-cyclopentyl-7-ethyl-5-methyl-6-oxo-5,6,7,8-tetrahydropteridin-2-yl)amino)-3-methoxybenzamide] the same measures were 0.234, ≤ 50 nM and < 20 nM.
